Reference: patent US6858607B1, “7,8-fused 4H-chromene and analogs as activators of caspases and inducers of apoptosis and the use thereof” (Cytovia, Inc., priority 2001, dated 2005)

What was measured:
T-47D = test: Caspase cascade activation in T-47D cells (N-(Ac-DEVD)-N'-ethoxycarbonyl-R110 fluorogenic substrate); type: cell-based; conditions: T-47D human breast cancer cells, 24 h incubation; for T-47D Ratio (caspase activity): ratio of net RFU of test compound to control
Description: (§1) Human breast cancer cell lines T47D and ZR-75-1 were grown according to media component mixtures designated by American Type Culture Collection+10% FCS (Invitrogen Corporation), in approximately 5% CO2-95% humidity incubator at approximately 37° C. T-47D and ZR-75-1 cells were maintained at a cell density between 30 and 80% confluency at a cell density of 0.1 to 0.6×10^6 cells/mL. Cells were harvested at approximately 600×g and resuspended at approximately 0.65×10^6 cells/mL into appropriate media plus approximately 10% FCS. An aliquot of approximately 45 μl of cells was added to a well of a 96-well microtiter plate containing approximately 5 μl of a solution of approximately 10% DMSO in RPMI-1640 media solution containing approximately 0.16 to 10 μM of the test compounds (0.016 to 1 μM final). An aliquot of approximately 45 μl of cells was added to a well of a 96-well microtiter plate containing approximately 5 μl of a solution of approximately 10% DMSO in RPMI-1640 media solution without test compound as the control sample. The samples were mixed by agitation and then incubated at approximately 37° C. for approximately 24 h in approximately 5% CO2-95% humidity incubator. After incubation, the samples were removed from the incubator and approximately 50 μl of a solution containing approximately 20 μM of N-(Ac-DEVD)-N′-ethoxycarbonyl-R110 fluorogenic substrate, SEQ ID NO:1 (Cytovia, Inc.; U.S. Pat. No. 6,335,429), comprising approximately 20% sucrose (Sigma), 20 mM DTT (Sigma), 200 mM NaCl (Sigma), 40 mM Na PIPES buffer at approximate pH 7.2 (Sigma), and approximately 500 μg/ml lysolecithin (Calbiochem) was added. The samples were mixed by agitation and incubated at room temperature. Using a fluorescent plate reader (Model 1420 Wallac Instruments), an initial reading (T=0) was made approximately 1-2 min after addition of the substrate solution, employing excitation at 485 nm and emission at […], to determine the background fluorescence of the control sample. After the 3 h incubation, the samples were read for fluorescence as above (T=3 h).
(§2) The Relative Fluorescence Unit values (RFU) were used to calculate the sample readings as follows: RFU(T=3h)−Control RFU(T=0)=Net RFU(T=3h)
(§3) The activity of caspase cascade activation was determined by the ratio of the net RFU value for the test compounds to that of control samples. The EC50 (nM) was determined by a sigmoidal dose-response calculation (Prism 2.0, GraphPad Software Inc.).

ZR-75-1 = test: Caspase cascade activation in ZR-75-1 cells (N-(Ac-DEVD)-N'-ethoxycarbonyl-R110 fluorogenic substrate); type: cell-based; conditions: ZR-75-1 human breast cancer cells, 24 h incubation; for ZR-75-1 Ratio (caspase activity): ratio of net RFU of test compound to control; for EC50: sigmoidal dose-response
Description: as §1, §2, §3

Molecule: COc1cc(C2C(C#N)=C(N)Oc3c2ccc2ncoc32)cc(Br)c1OC (centres unmarked) [Example 7, 2-Amino-3-cyano-4-(3-bromo-4,5-dimethoxyphenyl)-4H-oxazo[4,5-h]chromene]
- T-47D Ratio (caspase activity) (T-47D): 7.8
- EC50 (T-47D; sigmoidal dose-response): 68.7 nM
- ZR-75-1 Ratio (caspase activity) (ZR-75-1): 9.8
- EC50 (ZR-75-1): 43 nM

Molecule: COc1cc(C2C(C#N)=C(N)Oc3c2ccc2oc(=O)[nH]c32)cc(Br)c1OC (centres unmarked) [Example 2, 2-Amino-3-cyano-4-(3-bromo-4,5-dimethoxyphenyl)-8-oxo-4,8,9-trihydro-oxazo[5,4-h]chromene]
- T-47D Ratio (caspase activity) (T-47D): 6.4
- EC50 (T-47D; sigmoidal dose-response): 567 nM
- ZR-75-1 Ratio (caspase activity) (ZR-75-1): 8.5
- EC50 (ZR-75-1): 366 nM

Molecule: COc1cc(C2C(C#N)=C(N)Oc3c2ccc2oc(=O)n(C)c32)cc(Br)c1OC (centres unmarked) [Example 3, 2-Amino-3-cyano-4-(3-bromo-4,5-dimethoxyphenyl)-8-oxo-4,8-dihydro-9-methyl-oxazo[5,4-h]chromene]
- T-47D Ratio (caspase activity) (T-47D): 1.5
- T-47D EC50 (nM) (T-47D; sigmoidal dose-response): Inactive
- ZR-75-1 Ratio (caspase activity) (ZR-75-1): 2.7

Molecule: COc1cc(C2C(C#N)=C(N)Oc3c2ccc2c3oc(=O)n2C)cc(Br)c1OC (centres unmarked) [Example 6, 2-Amino-3-cyano-4-(3-bromo-4,5-dimethoxyphenyl)-8-oxo-4,8-dihydro-7-methyl-oxazo[4,5-h]chromene]
- T-47D Ratio (caspase activity) (T-47D): 6.5
- EC50 (T-47D; sigmoidal dose-response): 11.8 nM

Molecule: COc1cc(C2C(C#N)=C(N)Oc3c2ccc2[nH]c(=O)oc32)cc(Br)c1OC (centres unmarked) [Example 5, 2-Amino-3-cyano-4-(3-bromo-4,5-dimethoxyphenyl)-8-oxo-4,7,8-trihydro-oxazo[4,5-h]chromene]
- T-47D Ratio (caspase activity) (T-47D): 8.6
- EC50 (T-47D; sigmoidal dose-response): 285 nM
- ZR-75-1 Ratio (caspase activity) (ZR-75-1): 4.5
- EC50 (ZR-75-1): 156 nM

Molecule: COc1cc(C2C(C#N)=C(N)Oc3c2ccc2ocnc32)cc(Br)c1OC (centres unmarked) [Example 8, 2-Amino-3-cyano-4-(3-bromo-4,5-dimethoxyphenyl)-4H-oxazo[5,4-h]chromene]
- T-47D Ratio (caspase activity) (T-47D): 7.9
- EC50 (T-47D; sigmoidal dose-response): 35.1 nM
- ZR-75-1 Ratio (caspase activity) (ZR-75-1): 7.2
- EC50 (ZR-75-1): 12.9 nM

Molecule: 2-Amino-3-cyano-4-(3-bromo-4,5-dimethoxyphenyl)-4H-triazo[4,5-h]chromene [Example 1]
- T-47D Ratio (caspase activity) (T-47D): 1.8
- EC50 (T-47D; sigmoidal dose-response): > 1000 nM
- ZR-75-1 Ratio (caspase activity) (ZR-75-1): 5.3
- EC50 (ZR-75-1): 560 nM

Molecule: COC=NC1=C(C#N)C(c2cc(Br)c(OC)c(OC)c2)c2ccc3ocnc3c2O1 (centres unmarked) [Example 4, 2-Methoxymethylimine-3-cyano-4-(3-bromo-4,5-dimethoxyphenyl)-4H-oxazo[5,4-h]chromene]
- T-47D Ratio (caspase activity) (T-47D): 8.1
- EC50 (T-47D; sigmoidal dose-response): 47.2 nM
- ZR-75-1 Ratio (caspase activity) (ZR-75-1): 7.9
- EC50 (ZR-75-1): 23 nM
